We go through 6 compounds from patent publication US20170029531A1, “INHIBITION OF LACTATE DEHYDROGENASE 5 (LDH-5) BINDING, INCORPORATION, INTERNALIZATION AND/OR ENDOCYTOSIS TO IMMUNE CELLS” (Seattle Children's Hospital (dba Seattle Children's …, priority 2014, published 2017).

The subject of one assay is U87. The assay can be described thus: U87 uptake of fluorescently labeled LDH5, flow cytometry. It counts as cell-based. The procedure:
FIG. 26. U87 uptake. […] Fluorescently labeled LDH5 and Transferrin were pre-incubated with anti-LDHa at equilmolar concentrations. The antibody protein combination were then fed to U87 for 30 min. Cells were then trypsinized, acid washed, fixed in 2% PFA. Fluorescence intensity was obtained by flow cytometry. Anti-LDHa blocks uptake by approximately 50%, but has no effect on Transferrin uptake. N=2, p<0.05.
FIG. 27. U87 uptake. […] Fluorescently labeled LDH5 and Transferrin were incubated with U87 in the presence or absence of 20 mM oxamate for 30 min. Cells were then trypsinized, acid washed, fixed in 2% PFA. Fluorescence intensity was obtained by flow cytometry. N=1.
FIG. 28. U87 uptake. […] Fluorescently labeled LDH5 and Transferrin were incubated with U87 in the presence or absence of equimolar MDH for 30 min. Cells were then trypsinized, acid washed, fixed in 2% PFA. Fluorescence intensity was obtained by flow cytometry. N=1.
FIG. 29. U87 uptake. […] Cells were pre-incubated with 30 uM Dyngo 4a or 18 uM Pitstop. Fluorescently labeled LDH5 was then added for 30 min. Cells were then trypsinized, acid washed, fixed in 2% PFA. Fluorescence intensity was obtained by flow cytometry.
Experimental wells were pulsed with 10 ug/mL LDH-A488 for 30 min or 24 hours as indicated (control wells received no LDH) at 37° C. Cells were treated for 2 min with 0.5M acetic acid+150 mM NaCl (pH 2.5), followed by 4 subsequent washes in RPMI+10% FBS. […] (See FIGS. 26-29).
A general note: In flow cytometry, cells or beads pass a laser one at a time.

A further assay has as its system Tumor cells. As to the kind of experiment: LDH-5 internalization by tumor cells, flow cytometry (FIGS. 16-19). Type of assay: cell-based. Particulars: sodium oxamate, FIG. 18. The procedure:
FIG. 17. Tumor cells internalize LDH-5, which can be reduced by antibody blocking. 10 ug/ml of LDH5 specific monoclonal antibody was added to cells 1 hour prior to culture with LDH5 as described above and evaluated for internalization using flow cytometry to evaluate fluorescence.
FIG. 19. LDH-5 internalization is receptor mediated and Clathrin dependent. LDH5 internalization is reduced with receptor mediated endocytosis inhibitors.
LDH5 internalization is reduced with receptor mediated endocytosis inhibitors. This supports that internalization is mediated by a specific receptor, as opposite to bulk phagocytosis.

Assay [1] concerns monocytes from healthy donors. As to the kind of experiment: NKG2D ligand (MICA, MICB, ULBP-1) mRNA induction in monocytes from healthy donors (MHD), qPCR. Type of assay: cell-based, human. Particulars: U87 supernatant with sodium oxamate (100 mM in FIG. 2 panel E; 20 mM in the LDH inhibition method); 18 h; qPCR. The source says:
FIG. 2. Biochemical purification of tumor-derived Lactate Dehydrogenase, expression in glioma cell lines and verification of LDH-mediated induction of NKG2D ligands on monocytes. (Panel A) Protein purification strategy. […] of U87 glioblastoma cell line supernatant were subjected to ammonium sulfate precipitation. Active fractions were passed over a phenyl Sepharose column and active fractions were then subjected to size exclusion (Superdex 200), followed by ion exchange (MonoS) before Mass Spectroscopy (MS) analysis. (Panel B) Following separation by chromatography, fractions were dialyzed into PBS and cultured with MHD (healthy monocytes) for 18 hours. Whole cell mRNA was reverse transcribed, and induction of MICB and ULBP-1 was analyzed relative to media alone controls. Western blot analysis using a monoclonal antibody to LDH-5 (ab101562) was performed on […] of total protein to confirm the presence of LDH-5 in the active fractions. (Panel C) mRNA isolated from PBMC of healthy donors, 293T cells (as negative controls), and U87, U251, and SF767 glioma cell lines were analyzed for expression of LDHA and LDHB by qPCR. (Panel D) A 1:10 dilution of fresh, unfrozen glioblastoma cell line supernatants was analyzed for total LDH enzymatic activity and expressed as OD 495 nm. (Panel E) Validation of LDH induction of NKG2D ligands in monocytes. Six hundred twenty five U/L of purified, native LDH-5, fresh U87 supernatant, or fresh U87 supernatant in the presence of 100 mM sodium oxamate (NaOx) were cultured with MHD. Eighteen hours later, mRNA was isolated and analyzed for MICA, MICB, and ULBP-1 by qPCR. Values represent induction relative to MHD cultured in media alone. (Panel F) Fresh U87 supernatant, 625 U/L of purified, native LDH-5, LDH-5+0.5 mM Pyruvate (Pyr), or LDH-5+0.5 mM pyruvate and 100 mM NaOx were cultured with MHD. Eighteen hours later, mRNA was isolated and analyzed for MICA, MICB and ULBP-1 by qPCR. Values represent induction relative to MHD cultured in media alone. (Panel G) MHD were cultured with native LDH-5 isolated from liver cells. Eighteen hours later, MICB (black bars) and ULBP-1 (gray bars) were measured by qPCR. (Panel H) Expression of NKG2D and NKp46 on primary human NK cells following a 12 hour incubation with LDH (50 ug/mL) or lactate (20 mM). Cells were surface stained with antibodies directed against CD3, CD56, NKG2D, and NKp46 and analyzed by flow cytometry. The expression level of NKG2D and NKp46 are plotted against CD56. (Panel I) Expression of CD107a on primary human NK cells following IL-2 (1000 U/ml) activation and a 6 hour incubation with LDH (50 ug/mL) or lactate (20 mM). Cells were surface stained with antibodies directed against CD3, CD56, and CD107a and analyzed by flow cytometry. Representative data are shown in the top panels, a summary of percent CD107a+NK cells is shown below. (Panel J) 293T cells were transiently transfected with a pcDNA3.1 (−) vector encoding either LDHA or LDHB, or both constructs. Supernatant was then cultured with CD14-positively selected MHD. Eighteen hours later, MICB and ULBP-1 were measured by qPCR. Values represent induction relative to monocytes cultured in media alone. *P<0.05, **P<0.01.
FIG. 21. Purified native LDH5 or LDH1 was cultured with monocytes from healthy donors. Eighteen hours later, MICB and ULBP-1 were measured by qPCR. Values represent induction relative to monocytes cultured in medium alone. […]
A general note: In qPCR the cycle at which signal appears reflects the starting amount.

Assay [2] has as its system monocytes, or monocyte derived macrophages. As to the kind of experiment: Uptake of fluorescently labeled LDH5 by monocytes / monocyte derived macrophages (CD14+ cells), flow cytometry. Type of assay: cell-based, human. Particulars: monocyte derived macrophages pre-incubated with 25 uM chlorpromazine for 30 min, labeled LDH5 for a further 30 min; N=2. The procedure:
FIG. 23. […] Fluorescently labeled LDH5 was pre-incubated with anti-LDHa at equilmolar concentrations. The antibody protein combination was then fed to monocytes, or monocyte derived macrophages for 30 min. Cells were then trypsinized, acid washed, fixed in 2% PFA. Fluorescence intensity was obtained by flow cytometry. Anti-LDHa blocks uptake by approximately 50%. Macrophages N=1, Monocytes N=2.
FIG. 24. […] Monocyte derived macrophages were pre-incubated with 25 uM chlorpromazine for 30 min. Fluorescently labeled LDH5 was then added for an additional 30 min. Cells were then trypsinized, acid washed, fixed in 2% PFA. Fluorescence intensity was obtained by flow cytometry. N=2
FIG. 25. […] Fluorescently labeled LDH5 was incubated with U87 in the presence or absence of equimolar MDH for 30 min. Cells were then trypsinized, acid washed, fixed in 2% PFA. Fluorescence intensity was obtained by flow cytometry. N=2.
In an experiment utilizing the antibody with LDH5 in serum, the LDH5 complexed to the antibody was added to macrophages and to a sample of monocytes. […] Monocyte derived macrophages were pre-incubated with 25 uM chlorpromazine for 30 min. […] Fluorescence intensity was obtained by flow cytometry. […] Fluorescence intensity was obtained by flow cytometry. Cells exposed to LDH5-A488 were compared to cells without and amount of fluorescence was determined to represent amount of LDH5 inside of the cell.

The next assay has as its system primary human NK cells. As to the kind of experiment: NKG2D expression and CD107a degranulation of primary human NK cells after incubation with LDH or lactate. Type of assay: cell-based. Particulars: LDH 50 ug/mL or lactate 20 mM; 12 hour (NKG2D, NKp46) or 6 hour after IL-2 (CD107a). The source says: FIG. 2. Biochemical purification of tumor-derived Lactate Dehydrogenase, expression in glioma cell lines and verification of LDH-mediated induction of NKG2D ligands on monocytes. (Panel A) Protein purification strategy. […] of U87 glioblastoma cell line supernatant were subjected to ammonium sulfate precipitation. Active fractions were passed over a phenyl Sepharose column and active fractions were then subjected to size exclusion (Superdex 200), followed by ion exchange (MonoS) before Mass Spectroscopy (MS) analysis. (Panel B) Following separation by chromatography, fractions were dialyzed into PBS and cultured with MHD (healthy monocytes) for 18 hours. Whole cell mRNA was reverse transcribed, and induction of MICB and ULBP-1 was analyzed relative to media alone controls. […] (Panel C) mRNA isolated from PBMC of healthy donors, 293T cells (as negative controls), and U87, U251, and SF767 glioma cell lines were analyzed for expression of LDHA and LDHB by qPCR. (Panel D) A 1:10 dilution of fresh, unfrozen glioblastoma cell line supernatants was analyzed for total LDH enzymatic activity and expressed as OD 495 nm. […] Eighteen hours later, mRNA was isolated and analyzed for MICA, MICB, and ULBP-1 by qPCR. […] Eighteen hours later, mRNA was isolated and analyzed for MICA, MICB and ULBP-1 by qPCR. […] Eighteen hours later, MICB (black bars) and ULBP-1 (gray bars) were measured by qPCR. […]

Assay [3] addresses UL16-binding protein 1 (ULBP1) on monocytes (human) (UniProt Q9BZM6). As to the kind of experiment: cell-based or functional assay.
Assay [4] concerns the target MHC class I polypeptide-related sequence B (MICB) on monocytes (human) (UniProt Q29980). As to the kind of experiment: cell-based or functional assay.
Sequence of UniProt Q29980 (Q29980 23-383): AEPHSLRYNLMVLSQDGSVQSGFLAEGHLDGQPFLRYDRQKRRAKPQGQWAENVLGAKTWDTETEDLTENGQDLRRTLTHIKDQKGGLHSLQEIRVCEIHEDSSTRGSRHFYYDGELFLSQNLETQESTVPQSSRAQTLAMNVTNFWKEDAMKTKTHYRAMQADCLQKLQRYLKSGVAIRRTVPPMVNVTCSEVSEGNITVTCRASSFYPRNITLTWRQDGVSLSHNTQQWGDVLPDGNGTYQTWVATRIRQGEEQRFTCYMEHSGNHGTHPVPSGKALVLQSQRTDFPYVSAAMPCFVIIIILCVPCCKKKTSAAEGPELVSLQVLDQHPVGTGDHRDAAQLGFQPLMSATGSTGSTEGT

Sequence of UniProt Q9BZM6 (Q9BZM6 26-216): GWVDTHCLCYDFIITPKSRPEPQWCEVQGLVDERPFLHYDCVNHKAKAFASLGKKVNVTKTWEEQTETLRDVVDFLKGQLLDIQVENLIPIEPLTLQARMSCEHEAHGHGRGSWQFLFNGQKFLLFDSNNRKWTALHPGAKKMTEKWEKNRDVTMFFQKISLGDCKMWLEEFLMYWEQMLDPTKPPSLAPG

`O=C(N/N=C/c1cc(O)c(O)cc1O)c1cc2ccccc2cc1O` [Dyngo 4a]: the “LDH5 uptake, effect in words” value in the assay with U87 (U87 pre-incubated with 30 uM Dyngo 4a, labeled LDH5 for 30 min) is listed as “block LDH5 uptake”.
Consider `O=C1N=C(NS(=O)(=O)c2cccc3ccccc23)SC1=Cc1ccc(Br)cc1` [Pitstop], for which the “LDH5 uptake, effect in words” value in the assay on U87 (U87 pre-incubated with 18 uM Pitstop, labeled LDH5 for 30 min) is given as “block LDH5 uptake”.
With `NC(=O)C(=O)[O-].[Na+]` [Sodium oxamate, sodium oxamate, reference compound], the “LDH5 uptake, effect in words” value in the assay on U87 (U87, 20 mM oxamate, 30 min, N=1) is reported as “blocks LDH5 uptake”. Further, the “LDH-5 internalization in tumor cells, effect in words” value in the assay on Tumor cells is listed as “reduces internalization”. Also, in assay [1], the “Ability of U87 supernatant to induce NKG2D ligands (mRNA) on MHD” value is listed as “significantly reduced”.
In the case of `CN(C)CCCN1c2ccccc2Sc2ccc(Cl)cc21` [chlorpromazine], in assay [2], the “LDH5 uptake, effect in words” value is recorded as “blocks LDH5 uptake”.
Take `CC(O)C(=O)O` (centres unmarked) [lactate]: the “NK cell NKG2D expression or degranulation” value with primary human NK cells is given as “neither lactate nor LDH-5 alone directly impacted”.
Consider “Natural killer group 2, member D (NKG2D) receptor on NK cells (from UniProt P26718 1-216)”, for which, in assay [3], the IFN-γ production by degranulating NK cells was 20.2% and the degranulation of IL-2-activated NK cells worked out at 75.3%. Further, in assay [4], the IFN-γ production by degranulating NK cells worked out at 20.2% and the degranulation of IL-2-activated NK cells came to 75.3%.
